Source: publication PMC9967700, “Metabolism-Guided Optimization of Tryptophanol-Derived Isoindolinone p53 Activators” (Pharmaceuticals, 2023)
Like-named read-outs stand apart in the source and are kept apart here.

Tests used:
[1] = system: HCT116 p53−/− cells; parameters: method as in PMID 26735173; conditions: 48 h treatment; cited from earlier work
[2] = Glucuronidation in alamethicin induced-HLM with NADPH and UDPGA; format: in vitro ADME, human; conditions: NADPH, UDPGA, LC-ESI(-)-HRMS/MS
Protocol: For the generation of glucuronidation metabolites: HLM were preincubated for 15 min with alamethicin (25 µg/mL). Incubations were then run in duplicate at 37 °C, using the following conditions: test compounds at a concentration of 25 µM (1 μL of DMSO stock solution 5 mM), HLM (1 mg/mL, 10 μL), NADPH (5 mM), MgCl2 (2 mM), UDPGA (5 mM) for a final volume of 200 μL, in 50 mM ABIC buffer pH 7.4. Control incubations were conducted in the same conditions using: (1) DMSO as negative control, in absence of the test compound; (2) heat-denatured HLM (90 °C, 15 min); and (3) in absence of UDPGA co-factor. Aliquots (50 μL) were collected at 0 and 2 h and then quenched with 50 μL of a cold 2.5 μM reserpine solution in acetonitrile. All the samples were vortexed and centrifuged for 15 min at 10,000 rpm. The supernatants were collected and stored at −20 °C until further analysis by LC-ESI-HRMS/MS.

[3] = Human plasma incubations (stability); format: in vitro ADME; conditions: 37 °C, 40 μM
Protocol: Human plasma incubations were performed in duplicate, at 37 °C, by standard methodology. Specifically, incubations contained 40 μM of the test compound for a final volume of 1 mL. The mixtures were incubated for a total time of 24 h, and aliquots following 0, 30, 60, 120, 180 min and 24 h and quenched with a cold solution of reserpine 0.1 mM in acetonitrile. Following centrifugation (10,000 rpm, 10 min, RT), the clear supernatants were collected and analyzed by LC-ESI(+)-MS/MS. Additional control assays were conducted using PBS pH 7.4 instead of plasma solution and using procaine as a positive control.

[4] = parameters: method as in PMID 26735173; conditions: cited from earlier work
[5] = system: HCT116 p53+/+ cells; parameters: method as in PMID 26735173; conditions: 48 h treatment; cited from earlier work
[6] = Bioactivation: S9 rat liver fraction and HLM incubations in the presence of glutathione; format: in vitro ADME, human
Protocol: For the generation of Phase I metabolites: tested compounds, at a 10 μM concentration (1 μL of 5 mM DMSO stock solution), were incubated with HLM (1 mg protein/mL), Vivid® regenerating system (5 μL) and NADPH (1mM) in ABIC 50 mM buffer pH 7.4, for a total incubation volume of 500 μL. Incubations were run in duplicate, at 37 °C. Aliquots were collected at 0, 5, 10, 20, 30, 40, 50, 60, 75, 90, 120, 180 min and reactions were stopped by adding and ice-cold solution of reserpine (2.5 μM) in acetonitrile. Additional aliquots were taken at 0 and 120 min and subsequently treated with L-lysine (100 µM) and sodium cyanoborohydride (10 µM) or glutathione (100 µM). Following centrifugation (10,000 rpm, 15 min, RT), the clear supernatants were collected and analyzed LC-ESI-HRMS/MS. […]
Tested compounds at a 10 μM concentration (1 μL of 5 mM DMSO stock solution) were incubated with rat liver S9 fraction (2 mg protein/mL), Vivid® regenerating system (2 μL) and NADPH (1mM) in ABIC 50 mM buffer pH 7.4, for a total incubation volume of 500 μL. […] Following centrifugation (10,000 rpm, 15 min, RT) the clear supernatants were collected and analyzed LC-ESI-HRMS/MS. […]

[7] = Human liver microsomes incubations: half-life and intrinsic clearance; format: in vitro ADME; conditions: for Intrinsic Clearance / clearance classification: HLM; for Intrinsic Clearance: calculated from half-life (Equation 2); for clearance classification: classification after ref 32; for half-life at 10 μM: human, liver microsomes, pH 7.4, HLM 1 mg protein/mL, NADPH, 37 °C
Protocol: For the generation of Phase I metabolites: tested compounds, at a 10 μM concentration (1 μL of 5 mM DMSO stock solution), were incubated with HLM (1 mg protein/mL), Vivid® regenerating system (5 μL) and NADPH (1mM) in ABIC 50 mM buffer pH 7.4, for a total incubation volume of 500 μL. Incubations were run in duplicate, at 37 °C. Aliquots were collected at 0, 5, 10, 20, 30, 40, 50, 60, 75, 90, 120, 180 min and reactions were stopped by adding and ice-cold solution of reserpine (2.5 μM) in acetonitrile. Additional aliquots were taken at 0 and 120 min and subsequently treated with L-lysine (100 µM) and sodium cyanoborohydride (10 µM) or glutathione (100 µM). Following centrifugation (10,000 rpm, 15 min, RT), the clear supernatants were collected and analyzed LC-ESI-HRMS/MS. Control incubations were conducted in the same conditions: (1) using DMSO as negative control, in absence of the test drug; (2) using heat-denatured HLM (90 °C, 15 min); (3) using nevirapine, as a positive control, instead of the tested compound; and (4) in absence of NADPH co-factor.
The in vitro depletion half-lives of tested compounds t1/2 were calculated using Equation (1), assuming that testing compounds follow a first-order kinetic trend. The “slope” was determined from linear fitting of the natural logarithm of the concentration of drug remaining plotted against time:(1) t1/2=ln2/slope
The intrinsic clearance in HLM (CLint, HLM) was calculated using Equation (2):(2) CLint HLM =ln2/ t1/2 x mL incubation/mg microsomes x 45 mg microsomes/g liver x 26 g liver/Kg b.w.

[8] = system: HCT116 p53−/− cells; assay: Antiproliferative activity, sulforhodamine B (SRB) assay; format: cell-based, human; conditions: Homo sapiens, HCT-116, 48 h, 48 h treatment, read-out: HCT116 p53−/− GI50
Protocol: (§1) Tumor cells were cultured in RPMI-1640 with UltraGlutamine (Lonza, VWR), supplemented with 10% fetal bovine serum (FBS; Gibco, Alfagene) and maintained in a humidified incubator at 37 °C with 5% CO2. Cell lines were seeded in 96-well plates at the cells/well density of 5.0 × 10^3.

[9] = system: HCT116 p53+/+ cells; assay: as above; format: cell-based, human; conditions: for S.I. (selectivity index): HCT116 p53−/− versus HCT116 p53+/+; for GI50: Homo sapiens, HCT-116, 48 h treatment, read-out: HCT116 p53+/+ GI50
Protocol: as §1

[10] = In vitro reactions with bionucleophiles
Protocol: To a solution of compound 13d in acetonitrile (1.00 eq., 10.1 mg in 400 µL, 5.04 × 10^−2 M) reduced glutathione (4.00 eq. 25.2 mg, 82.00 µmol) dissolved in 400 µL of ABIC buffer 50 mM pH 7.4 was added. The reaction mixture was incubated for 24 h at 37 °C and monitored by LC-ESI-HRMS/MS.
To a solution of compound 13k in acetonitrile (1.00 eq., 4.3 mg in 200 µL, 3.92 × 10^−2 M) reduced glutathione (4.00 eq. 9.64 mg, 31.36 µmol) dissolved in 200 µL of ABIC buffer 50 mM pH 7.4 was added. The reaction mixture was incubated for 24 h at 37 °C and monitored by LC-ESI-HRMS/MS.
SLMP53-1_M5 (1.00 eq., 2.1 mg, dissolved in 150 µL of ACN) was added to a L-lysine (2 eq.) solution in 50 mM ABIC buffer pH 7.4. Following incubation for 24 h at 37 °C a solution of cyanoborohydride (2 eq) was added. The mixture was analyzed by LC-ESI(+)-HRMS/MS.

[11] = mean ± SEM of 3–5 independent experiments
[12] = mean ± SEM of 5 independent experiments

CC12OCC(Cc3c[nH]c4ccccc34)N1C(=O)c1ccccc12 (stereo not shown) [SLMP53-1]
GI50 [1]: 34 ± 3.5 µM
Phase II (glucuronic acid conjugate) metabolites identified [2]: two glucuronic acid conjugates were identified
stability towards plasmatic enzymes [3]: stable towards plasmatic enzymes for 3 h
toxicity alerts in vivo [4]: not associated with toxicity alerts
GI50 [5]: 15.6 ± 1.6 µM
GSH adducts identified ([6]; S9 rat liver fraction and HLM in the presence of GSH): Two GSH adducts were identified
Intrinsic Clearance [7]: 3.67 mL/min/kg
clearance classification [7]: low clearance
half-life at 10 μM [7]: 2.3 h

Cn1cc(C[C@H]2CO[C@]3(c4ccccc4)c4ccccc4C(=O)N23)c2ccccc21 [SLMP53-2]
Phase II (glucuronic acid conjugate) metabolites identified [2]: no Phase II metabolites were identified
stability towards plasmatic enzymes [3]: stable towards plasmatic enzymes for 3 h
GI50 [8, 11]: 17.7 ± 2.3 µM
S.I. (selectivity index) [9]: 2.1
GI50 [9, 11]: 8.4 ± 1.1 µM
Intrinsic Clearance ([7]; listed as SLMP53-2 (7)): 2.75 mL/min/kg
clearance classification [7]: low clearance
half-life at 10 μM [7]: 2.45 h

C[C@]12OC[C@H](CC(=O)c3ccccc3NC=O)N1C(=O)c1ccccc12 [SLMP53-1_M5, N-(2-(2-((3S,9bR)-9b-methyl-5-oxo-2,3,5,9b-tetrahydrooxazolo[2,3-a]isoindol-3-yl)acetyl)phenyl)formamide]
GI50 [8, 12]: 44 ± 1.8 µM
GI50 [9, 12]: 48.8 ± 2.3 µM
reaction products upon L-lysine incubation ([10]; followed by reductive stabilization, 24 h, 37 °C): no reaction products were obtained

O=C1c2ccccc2[C@@]2(c3ccccc3)OC[C@H](Cc3c(Br)n(Cc4ccccc4)c4ccccc34)N12 [Compound 13k, (3S, 9bR)-3-((1-benzyl-2-bromo-1H-indol-3-yl)methyl)-9b-phenyl-2,3-dihydrooxazolo[2,3-a]isoindol-5(9bH)-one]
GI50 [8, 11]: 30.5 ± 2.1 µM
S.I. (selectivity index) [9]: 3.8
GI50 [9, 11]: 8.09 ± 2.01 µM
GSH adducts stemming from the bioactivation of Phase I metabolites ([6]; S9 rat liver fraction incubation in the presence of GSH): no adducts stemming from the bioactivation of Phase I metabolites were identified
Intrinsic Clearance [7]: 3.4 mL/min/kg
clearance classification [7]: low clearance
half-life at 10 μM [7]: 2.45 h
products of addition of GSH with concomitant loss of bromine ([10]; with or without enzymatic conditions (S9 rat liver incubations)): no products compatible with the addition of GSH, and the concomitant loss of bromine, were detected
